# According to ChEMBL document CHEMBL1131428, “Immunophilins: beyond immunosuppression” (J Med Chem, 1998):
# What was measured:
# [1] = system: Mus musculus; test: Compound was evaluated for the recovery of Striatal TH immunostaining in MPTP-treated mice by concurrent treatment after 40 mg/kg sc administration.; assay type: functional, organism-based; parameters: dose 40 mg/kg; details: at 40 mg/kg
# [2] = species: Gallus gallus; test: In Vitro neurotrophic effect was measured in cultured chick DRG sensory neurons.; assay type: functional; details: read-out: ED50 (the source's name)
# [3] = molecular target: Peptidyl-prolyl cis-trans isomerase FKBP1A (Homo sapiens, UniProt P62942); test: Compound was tested for its ability to inhibit FK506 binding protein 12 rotamase activity
# [4] = system: Mus musculus; test: Compound was evaluated for the recovery of Striatal TH immunostaining in MPTP-treated mice by concurrent treatment after 4 mg/kg sc administration.; assay type: functional, organism-based; parameters: dose 4 mg/kg; details: at 4 mg/kg
# [5] = species: Rattus norvegicus; test: Compound was evaluated for the regrowth of Striatal dopamine neurons in 6HODA-lesioned rats at 120 days; assay type: functional, organism-based
# [6] = species: Rattus norvegicus; test: Compound was evaluated for the regrowth of Striatal dopamine neurons in 6HODA-lesioned rats at 1h.; assay type: functional, organism-based
# [7] = species: Rattus norvegicus; test: Compound was evaluated for the regrowth of Striatal dopamine neurons in 6HODA-lesioned rats at 28 days; assay type: functional, organism-based
# [8] = species: Rattus norvegicus; test: Compound was evaluated for the regrowth of Striatal dopamine neurons in 6HODA-lesioned rats at 60 days; assay type: functional, organism-based
# [9] = species: Rattus norvegicus; test: Compound was evaluated for the regrowth of Striatal dopamine neurons in 6HODA-lesioned rats at 7 days; assay type: functional, organism-based
# [10] = system: Rattus norvegicus; test: Mean axonal area to promote nerve regeneration in rats with lesioned sciatic nerves was measured after 10 mg/kg sc daily administration.; assay type: functional; details: route subcutaneous
# [11] = system: Rattus norvegicus; test: Mean axonal area to promote nerve regeneration in rats with lesioned sciatic nerves was measured after 1 mg/kg sc daily administration.; assay type: functional; details: route subcutaneous
# [12] = system: Rattus norvegicus; test: Mean axonal area to promote nerve regeneration in rats with lesioned sciatic nerves was measured after 5 mg/kg sc daily administration.; assay type: functional; details: route subcutaneous
# [13] = system: Rattus norvegicus; test: Axonal regeneration rate to promote nerve regeneration in rats with lesioned sciatic nerves was measured after 10 mg/kg sc daily administration.; assay type: functional; details: route subcutaneous
# [14] = system: Rattus norvegicus; test: Axonal regeneration rate to promote nerve regeneration in rats with lesioned sciatic nerves was measured after 1 mg/kg sc daily administration.; assay type: functional; details: route subcutaneous
# [15] = system: Rattus norvegicus; test: Axonal regeneration rate to promote nerve regeneration in rats with lesioned sciatic nerves was measured after 5 mg/kg sc daily administration.; assay type: functional; details: route subcutaneous
# [16] = system: Rattus norvegicus; test: Mean axonal area to promote nerve regeneration in rats with lesioned sciatic nerves was measured after 2 mg/kg sc daily administration.; assay type: functional; details: route subcutaneous
# Sequence of Peptidyl-prolyl cis-trans isomerase FKBP1A (P62942 whole entry): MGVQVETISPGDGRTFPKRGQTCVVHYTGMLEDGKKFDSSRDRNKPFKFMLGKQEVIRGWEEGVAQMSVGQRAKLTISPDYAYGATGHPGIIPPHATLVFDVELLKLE
EC50 [2],Ki [3],Compound,further results
–,–,CC(C)(C)C(=O)C(=O)N1CCCCC1C(=O)OC(CCCc1ccccc1)CCCc1ccccc1 (stereo not given),Recovery [1]: 43.8%
2.5 nM,12 nM,CCC(C)(C)C(=O)C(=O)N1CCCCC1C(=O)OCCCc1cc(OC)ccc1OC (stereo not given),–
–,72 nM,O=C(OCCCc1cccnc1)C1CCCN1S(=O)(=O)Cc1ccccc1 (stereo not given),Recovery [4]: 44.3%
1 nM,332 nM,Cc1ccc(S(=O)(=O)N2CCCCC2C(=O)OC(CCCc2ccccc2)CCCc2ccccc2)cc1 (stereo not given),–
–,95 nM,CC(C)(C)C(=O)C(=O)N1CCCC1C(=O)OCCCc1ccccc1 (stereo not given),–
–,120 nM,CCC(C)(C)C(=O)C(=O)N1CCCC1C(=O)OCCc1cc(OC)c(OC)c(OC)c1 (stereo not given),–
–,> 10000 nM,CCOC(=O)C1CCCCN1C(=O)C(=O)OC (stereo not given),–
–,60 nM,CCC(C)(C)C(=O)C(=O)N1CCCCC1C(=O)OCCCCc1ccc(OC)cc1 (stereo not given),–
–,25 nM,CCC(C)(C)C(=O)C(=O)N1CCCCC1C(=O)OCCCc1cc(OC)c(OC)c(OC)c1 (stereo not given),–
–,–,CCC(C)(C)C(=O)C(=O)N1CCCCC1C(=O)OC(CCc1ccccc1)CCc1ccccc1 (stereo not given),Recovery [1]: 71.6%
6 nM,103 nM,COc1ccc(CCCCOC(=O)C2CCCCN2C(=O)C(=O)C2CCCCC2)cc1 (stereo not given),–
0.05 nM,–,COc1cc(C(=O)C(=O)N2CCCCC2C(=O)OC(CCCc2ccccc2)CCCc2ccccn2)cc(OC)c1OC (stereo not given),–
2 nM,250 nM,CCC(C)(C)C(=O)C(=O)N1CCCC1C(=O)OCCCc1cc(OC)ccc1OC (stereo not given),–
0.3 nM,–,CCC(C)(C)C(=O)C(=O)N1CCCCC1C(=O)O[C@H](CCc1ccccc1)c1ccccc1 (stereo not given in full),–
0.5 nM,–,CO[C@H]1C[C@@H]2CC[C@@H](C)[C@@](O)(O2)C(=O)C(=O)N2CCCC[C@H]2C(=O)O[C@H]([C@H](C)C[C@@H]2CC[C@@H](O)[C@H](OC)C2)CC(=O)[C@H](C)/C=C(\C)[C@@H](O)[C@@H](OC)C(=O)[C@H](C)C[C@H](C)/C=C/C=C/C=C/1C [SIROLIMUS],–
–,3 nM,CC(C)(C)C(=O)C(=O)N1CCCC1C(=O)OCCCc1cccnc1 (stereo not given),–
0.29 nM,32 nM,CC(C)(C)C(=O)C(=O)N1CCCCC1C(=O)OCCCC1CCCCC1 (stereo not given),–
0.07 nM,70 nM,CCC(C)CNC(=O)N1CCCCC1C(=O)OCCCc1cccnc1 (stereo not given),Recovery [4]: 27.5%
0.257 nM,194 nM,CCC(C)(C)C(=O)C(=O)N1CCCC1C(=O)OCCCC1CCCCC1 (stereo not given),–
0.075 nM,195 nM,CCC(C)(C)C(=O)C(=O)N1CCCC1C(=O)OCCCc1ccccn1 (stereo not given),–
–,8.3 nM,CCC(C)(C)C(=O)C(=O)N1CCCCC1C(=O)OCCC(c1ccccc1)c1ccccc1 (stereo not given),–
0.3 nM,131 nM,O=C(OCCCc1cccnc1)C1CCCN1C(=S)NC1CCCCC1 (stereo not given),Recovery [4]: 56.1%
2 nM,–,O=C(C(=O)N1CCCC1C(=O)OCCCc1cccnc1)C1CCCCC1 (stereo not given),–
–,1300 nM,CCOC(=O)C1CCCCN1C(=O)C(=O)C(C)(C)CC (stereo not given),–
1 nM,742 nM,CCC(C)(C)NC(=O)N1CCCC1C(=O)OCCCc1cccnc1 (stereo not given),–
0.5 nM,–,"C=CC[C@@H]1/C=C(\C)CC(C)C[C@H](OC)[C@H]2O[C@@](O)(C(=O)C(=O)N3CCCC[C@H]3C(=O)O[C@H](/C(C)=C/[C@@H]3CC[C@@H](O)[C@H](OC)C3)[C@H](C)[C@@H](O)CC1=O)[C@H](C)C[C@@H]2OC (single isomer, unassigned) [TACROLIMUS ANHYDROUS]",Mean axonal area [10]: 100; Mean axonal area [11]: 67; Mean axonal area [12]: 120; Axonal regeneration rate [13]: 29; Axonal regeneration rate [14]: 16; Axonal regeneration rate [15]: 34; Mean axonal area [16]: 83
0.03 nM,–,O=C(OCCCCc1ccccc1)C1CCCCN1S(=O)(=O)Cc1ccccc1 (stereo not given),Recovery [4]: 38%

EC50 [2],Ki [3],Compound,further results
–,–,O=C(OCCCCc1ccccc1)C1CCCCN1S(=O)(=O)c1ccccc1 (stereo not given),Recovery [4]: 29.2%
5 nM,0.7 nM,CC[C@@H]1/C=C(/C)[C@@H](O)[C@@H](C)C[C@H](OC)[C@H]2O[C@@](O)(C(=O)C(=O)N3CCCC[C@H]3C(=O)O[C@H](/C(C)=C/[C@@H]3CC[C@@H](O)[C@H](OC)C3)[C@H](C)[C@@H](O)CC1=O)[C@H](C)C[C@@H]2OC,–
> 10000 nM,8000 nM,COC(=O)C(=O)N1CCCCC1C(=O)OCc1ccccc1 (stereo not given),–
0.82 nM,210 nM,O=C(C(=O)N1CCCCC1C(=O)OCCCc1ccccc1)C1CCCCC1 (stereo not given),–
8.5 nM,130 nM,CCC(C)(C)C(=O)C(=O)N1CCCCC1C(=O)OCCCc1cccnc1 (stereo not given),–
> 10000 nM,–,COC(=O)C(=O)N1CCCCC1C(=O)OCCCC1CCCCC1 (stereo not given),–
0.8 nM,725 nM,O=C(C(=O)N1CCCCC1C(=O)OCCCc1cccnc1)c1ccccc1 (stereo not given),–
> 10000 nM,–,COC(=O)C(=O)N1CCCCC1C(=O)OCCCCC1CCCCC1 (stereo not given),–
0.17 nM,15 nM,CCC(OC(=O)C1CCCCN1C(=O)C(=O)C(C)(C)CC)C(CCc1ccccc1)c1ccc(OC)cc1 (stereo not given),–
0.133 nM,107 nM,O=C(OC(CCCc1ccccc1)Cc1ccccc1)C1CCCCN1S(=O)(=O)Cc1ccccc1 (stereo not given),–
1 nM,760 nM,O=C(C(=O)N1CCCCC1C(=O)OCCCC1CCCCC1)C1CCCCC1 (stereo not given),–
0.8 nM,450 nM,CCC(C)(C)C(=O)C(=O)N1CCCC1C(=O)OC/C=C/c1cc(OC)ccc1OC (stereo not given),–
0.063 nM,50 nM,O=C(C(=O)N1CCCCC1C(=O)OC(CCCc1ccccc1)CCCc1ccccn1)c1ccccc1 (stereo not given),–
0.03 nM,–,COc1ccc(CCCCOC(=O)C2CCCCN2C(=O)C(=O)c2cc(OC)c(OC)c(OC)c2)cc1 (stereo not given),–
0.11 nM,78 nM,CC(C)(C)C(=O)C(=O)N1CCCCC1C(=O)OC1C2CC3CC(C2)CC1C3 (stereo not given),–
–,3 nM,O=C(C(=O)N1CCCCC1C(=O)OC(CCCc1ccccc1)CCCc1ccccc1)c1ccccc1 (stereo not given),–
> 10000 nM,–,COC(=O)C(=O)N1CCCCC1C(=O)OCCCC1CCCC1 (stereo not given),–
0.14 nM,116 nM,O=C(OCCCc1cccnc1)C1CCCN1C(=S)NC1C2CC3CC(C2)CC1C3 (stereo not given),Recovery [4]: 52.3%
–,–,CC(C)(C)C(=O)C(=O)N1CCCCC1C(=O)OCCCc1ccccc1 (stereo not given),Recovery [1]: 32.4%
–,24 nM,COc1ccc(CCCCOC(=O)C2CCCCN2C(=O)C(=O)C(C)(C)C)cc1 (stereo not given),Recovery [1]: 58.9%
1 nM,–,CCC(C)(C)C(=O)C(=O)N1CCCCC1C(=O)OCCCC1CCCCC1 (stereo not given),–
–,1480 nM,O=C(OCCCc1cccnc1)C1CCCN1C(=O)NC1CCCCC1 (stereo not given),Recovery [4]: 59.8%
0.95 nM,–,COc1cc(C(=O)C(=O)N2CCCCC2C(=O)OC(CCCc2ccccc2)CCc2cccnc2)cc(OC)c1OC (stereo not given),–
10 nM,170 nM,CCC(C)(C)C(=O)C(=O)N1CCCC1C(=O)OCCCc1ccc2c(c1)OCO2 (stereo not given),–
–,50 nM,C/C=C/C[C@@H](C)[C@@H](O)[C@H]1C(=O)N[C@@H](CC)C(=O)N(C)CC(=O)N(C)[C@@H](CC(C)C)C(=O)N[C@@H](C(C)C)C(=O)N(C)[C@@H](C)C(=O)N[C@@H](C)C(=O)N[C@H](C)C(=O)N(C)[C@@H](CC(C)C)C(=O)N(C)[C@@H](CC(C)C)C(=O)N(C)[C@@H](C(C)C)C(=O)N1C,–
–,–,Cc1ccc(S(=O)(=O)N2CCCCC2C(=O)OCCCCc2ccccc2)cc1 (stereo not given),Recovery [4]: 44.2%
0.06 nM,–,COc1cc(C(=O)C(=O)N2CCCCC2C(=O)OCCCc2c[nH]c3ccccc23)cc(OC)c1OC (stereo not given),–

Compound,EC50 [2],Ki [3],further results
CCC(C)(C)C(=O)C(=O)N1CCCC1C(=O)OCCCc1cccnc1 (stereo not given),0.05 nM,7.5 nM,Recovery [1]: 67.5%; Recovery [5]: 19.5%; Recovery [6]: 34.2%; Recovery [7]: 28.1%; Recovery [8]: 17.3%; Recovery [9]: 25.5%
COC(=O)C1CCCCN1C(=O)C(=O)c1ccccc1 (stereo not given),> 10000 nM,> 10000 nM,–
CCC(C)(C)C(=O)C(=O)N1CCCCC1C(=O)OCCCc1ccccc1 (stereo not given),–,250 nM,–
CCC(C)(C)C(=O)C(=O)N1CCCC1C(=O)OCCCc1ccccc1 (stereo not given),–,42 nM,–
CCOC(=O)C1CCCCN1C(=O)C(C)=O (stereo not given),> 10000 nM,> 10000 nM,–
